#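 A five-concentration, 48-hour dose response in 96-well plates underlies each endpoint, interpolated linearly between surrounding concentrations. At the TGI there is no net growth.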 *1 amine or outer side, *2 acyl side, *3 side chain or, on linkers, in order; H or OH if unused. Where a SMILES comes first, the peptide text is derived from it. [ ]: non-standard residue; d: D form. The star is where a group is joined. ξ: configuration not given here. NMeY = CN[C@@H](Cc1ccc(O)cc1)C(=O)O; Ethylenediamine = C(CN[*:2])N[*:1]; ξNMeL = CNC(CC(C)C)C(=O)O; Cbz = O=C(OCc1ccccc1)*; Lac = C[C@H](O)C(=O)O; ξA = CC(N)C(=O)O
# Assays:
# Test in all cases: growth of human tumour cells (NCI), 48 h
# UO-31 renal = tested on: UO-31 renal
# SNB-19 CNS = tested on: SNB-19 CNS
# NCI-H460 lung = tested on: NCI-H460 lung
# HCC-2998 colon = tested on: HCC-2998 colon
# MCF7 breast = tested on: MCF7 breast
# SNB-75 CNS = tested on: SNB-75 CNS
# MALME-3M melanoma = tested on: MALME-3M melanoma
# SF-295 CNS = tested on: SF-295 CNS
# EKVX NSCLC = tested on: EKVX NSCLC
# SN12C renal = tested on: SN12C renal
# SK-MEL-5 melanoma = tested on: SK-MEL-5 melanoma
# MOLT-4 leukemia = tested on: MOLT-4 leukemia
# NCI-H23 lung = tested on: NCI-H23 lung
# SR leukemia = tested on: SR leukemia
# LOX IMVI melanoma = tested on: LOX IMVI melanoma
# HCT-116 colon = tested on: HCT-116 colon
# U251 CNS = tested on: U251 CNS
# UACC-62 melanoma = tested on: UACC-62 melanoma
# M14 melanoma = tested on: M14 melanoma
# CCRF-CEM leukemia = tested on: CCRF-CEM leukemia
# HL-60(TB) leukemia = tested on: HL-60(TB) leukemia
# OVCAR-5 ovarian = tested on: OVCAR-5 ovarian
# KM12 colon = tested on: KM12 colon
# NCI/ADR-RES ovarian = tested on: NCI/ADR-RES ovarian
# HOP-92 NSCLC = tested on: HOP-92 NSCLC
# BT-549 breast = tested on: BT-549 breast
# MDA-MB-435 = tested on: MDA-MB-435
# UACC-257 melanoma = tested on: UACC-257 melanoma
# A549 NSCLC = tested on: A549 NSCLC
# COLO 205 colon = tested on: COLO 205 colon
# T-47D breast = tested on: T-47D breast
# SF-539 CNS = tested on: SF-539 CNS
# MDA-MB-231 breast = tested on: MDA-MB-231 breast
# HCT-15 colon = tested on: HCT-15 colon
# NCI-H522 lung = tested on: NCI-H522 lung
# SK-MEL-2 melanoma = tested on: SK-MEL-2 melanoma
# TK-10 renal = tested on: TK-10 renal
# RXF 393 renal = tested on: RXF 393 renal
# OVCAR-4 ovarian = tested on: OVCAR-4 ovarian
# DU-145 prostate = tested on: DU-145 prostate
# K-562 leukemia = tested on: K-562 leukemia
# IGROV1 ovarian = tested on: IGROV1 ovarian
# HOP-62 NSCLC = tested on: HOP-62 NSCLC
# SW-620 colon = tested on: SW-620 colon
# HS 578T breast = tested on: HS 578T breast
# SK-OV-3 ovarian = tested on: SK-OV-3 ovarian
# 786-0 renal = tested on: 786-0 renal
# HT29 colon = tested on: HT29 colon
# SK-MEL-28 melanoma = tested on: SK-MEL-28 melanoma
# CAKI-1 renal = tested on: CAKI-1 renal
# PC-3 prostate = tested on: PC-3 prostate
# OVCAR-8 ovarian = tested on: OVCAR-8 ovarian
# RPMI-8226 leukemia = tested on: RPMI-8226 leukemia
# NCI-H226 lung = tested on: NCI-H226 lung
# OVCAR-3 ovarian = tested on: OVCAR-3 ovarian
# SF-268 CNS = tested on: SF-268 CNS
# MDA-N = tested on: MDA-N
# A498 renal = tested on: A498 renal
# ACHN renal = tested on: ACHN renal
smiles,measurement,setting,value
COc1ccc(C[C@@H](C(=O)NCCNC(=O)C(CC(C)C)N(C)C(=O)[C@@H]2CCCN2C(=O)[C@H](C)O)N(C)C(=O)[C@@H]2CCCN2C(=O)[C@H](CC(C)C)NC(=O)C(C)NC(=O)OCc2ccccc2)cc1 (some centres undefined) (Cbz-[ξA]LP[NMeY](Me)-{Ethylenediamine-ξNMeL-Pro-Lac}),TGI,UO-31 renal,> 100 µM
same,TGI,SNB-19 CNS,> 100 µM
same,TGI,NCI-H460 lung,> 100 µM
same,TGI,HCC-2998 colon,> 100 µM
same,TGI,MCF7 breast,> 100 µM
same,TGI,SNB-75 CNS,> 100 µM
same,TGI,MALME-3M melanoma,> 100 µM
same,TGI,SF-295 CNS,> 100 µM
same,TGI,EKVX NSCLC,> 100 µM
same,TGI,SN12C renal,> 100 µM
same,TGI,SK-MEL-5 melanoma,> 100 µM
same,TGI,MOLT-4 leukemia,> 100 µM
same,TGI,NCI-H23 lung,> 100 µM
same,TGI,SR leukemia,> 100 µM
same,TGI,LOX IMVI melanoma,> 100 µM
same,TGI,HCT-116 colon,> 100 µM
same,TGI,U251 CNS,> 100 µM
same,TGI,UACC-62 melanoma,> 100 µM
same,TGI,M14 melanoma,> 100 µM
same,TGI,CCRF-CEM leukemia,> 100 µM
same,TGI,HL-60(TB) leukemia,> 100 µM
same,TGI,OVCAR-5 ovarian,> 100 µM
same,TGI,KM12 colon,> 100 µM
same,TGI,NCI/ADR-RES ovarian,> 100 µM
same,TGI,HOP-92 NSCLC,> 100 µM
same,TGI,BT-549 breast,> 100 µM
same,TGI,MDA-MB-435,> 100 µM
same,TGI,UACC-257 melanoma,> 100 µM
same,TGI,A549 NSCLC,> 100 µM
same,TGI,COLO 205 colon,> 100 µM
same,TGI,T-47D breast,> 100 µM
same,TGI,SF-539 CNS,> 100 µM
same,TGI,MDA-MB-231 breast,> 100 µM
same,TGI,HCT-15 colon,> 100 µM
same,TGI,NCI-H522 lung,> 100 µM
same,TGI,SK-MEL-2 melanoma,> 100 µM
same,TGI,TK-10 renal,> 100 µM
same,TGI,RXF 393 renal,> 100 µM
same,TGI,OVCAR-4 ovarian,> 100 µM
same,TGI,DU-145 prostate,> 100 µM
same,TGI,K-562 leukemia,> 100 µM
same,TGI,IGROV1 ovarian,> 100 µM
same,TGI,HOP-62 NSCLC,> 100 µM
same,TGI,SW-620 colon,> 100 µM
same,TGI,HS 578T breast,> 100 µM
same,TGI,SK-OV-3 ovarian,> 100 µM
same,TGI,786-0 renal,> 100 µM
same,TGI,HT29 colon,> 100 µM
same,TGI,SK-MEL-28 melanoma,> 100 µM
same,TGI,CAKI-1 renal,> 100 µM
same,TGI,PC-3 prostate,> 100 µM
same,TGI,OVCAR-8 ovarian,> 100 µM
same,TGI,RPMI-8226 leukemia,> 100 µM
same,TGI,NCI-H226 lung,> 100 µM
same,TGI,OVCAR-3 ovarian,> 100 µM
same,TGI,SF-268 CNS,> 100 µM
same,TGI,MDA-N,> 100 µM
same,TGI,A498 renal,> 100 µM
same,TGI,ACHN renal,> 100 µM
N#CCCN(CCC#N)c1ccc(C(N=Nc2ccc(Cl)cc2)=Nc2ccccc2)cc1,TGI,UO-31 renal,21.3 µM
same,TGI,SNB-19 CNS,25 µM
same,TGI,NCI-H460 lung,22.5 µM
same,TGI,HCC-2998 colon,20.6 µM
same,TGI,MCF7 breast,28.2 µM
same,TGI,SNB-75 CNS,31.8 µM
same,TGI,SF-295 CNS,12 µM
same,TGI,EKVX NSCLC,24.4 µM
same,TGI,SN12C renal,33.5 µM
same,TGI,SK-MEL-5 melanoma,5.13 µM
same,TGI,MOLT-4 leukemia,89.4 µM
same,TGI,NCI-H23 lung,25.7 µM
same,TGI,SR leukemia,> 100 µM
same,TGI,HCT-116 colon,24.4 µM
same,TGI,U251 CNS,32.4 µM
same,TGI,UACC-62 melanoma,21.8 µM
same,TGI,M14 melanoma,26.9 µM
same,TGI,OVCAR-5 ovarian,26 µM
same,TGI,KM12 colon,31.3 µM
same,TGI,NCI/ADR-RES ovarian,24.2 µM
same,TGI,HOP-92 NSCLC,32.3 µM
same,TGI,BT-549 breast,16.6 µM
same,TGI,MDA-MB-435,27.5 µM
same,TGI,UACC-257 melanoma,20.8 µM
same,TGI,A549 NSCLC,29.1 µM
same,TGI,COLO 205 colon,12.4 µM
same,TGI,T-47D breast,27.2 µM
same,TGI,SF-539 CNS,29.1 µM
same,TGI,MDA-MB-231 breast,33.8 µM
same,TGI,HCT-15 colon,21.2 µM
same,TGI,NCI-H522 lung,30.4 µM
same,TGI,SK-MEL-2 melanoma,13.9 µM
same,TGI,TK-10 renal,29.1 µM
same,TGI,RXF 393 renal,30.8 µM
same,TGI,OVCAR-4 ovarian,26 µM
same,TGI,DU-145 prostate,26.9 µM
same,TGI,K-562 leukemia,> 100 µM
same,TGI,IGROV1 ovarian,24.6 µM
same,TGI,HOP-62 NSCLC,28.2 µM
same,TGI,SW-620 colon,39.2 µM
same,TGI,HS 578T breast,35 µM
same,TGI,SK-OV-3 ovarian,27.1 µM
same,TGI,786-0 renal,28 µM
same,TGI,HT29 colon,34.3 µM
same,TGI,SK-MEL-28 melanoma,30 µM
same,TGI,CAKI-1 renal,26.1 µM
same,TGI,PC-3 prostate,25.5 µM
same,TGI,OVCAR-8 ovarian,28.7 µM
same,TGI,RPMI-8226 leukemia,> 100 µM
same,TGI,NCI-H226 lung,31.9 µM
same,TGI,OVCAR-3 ovarian,22.1 µM
same,TGI,SF-268 CNS,27.1 µM
same,TGI,MDA-N,22.8 µM
same,TGI,A498 renal,34.5 µM
same,TGI,ACHN renal,27.2 µM

# From PubChem BioAssay (NCI)
